# Patent US20240033236A1, “METHODS OF TREATING HERPES VIRAL INFECTION WITH 4-PHENYLBUTYRATE (PBA) OR A PHARMACEUTICALLY ACCEPTABLE SALT THEREOF” (THE BOARD OF TRUSTEES OF THE UNIVERSITY OF ILLINOIS, priority 2020, published 2024)
# Entries after “also recorded” stand apart in the source; their conditions may differ.
# Experiments:
# [1] = in vivo, iv; cited from earlier work
# HSV-1 McKrae = experiment: Murine HSV-1 encephalitis model (intranasal infection); assay type: in vivo; settings: BALB/C mice, intranasal HSV-1 McKrae, compared with untreated
# HSV-1 = experiment: Plaque assay of HSV-1 infected HCEs treated with ER stress modulators; settings: 0.1 MOI HSV-1 K26RFP, 24 hpi, tunicamycin, thapsigargin, Brefeldin-A 1 μM, salubrinal 75 μM, PBA 10 mM
# Experimental: Infected cells suspended in 5004 of Opti-MEM prior to sonication using a probe sonication system at 70% amplitude for 30 seconds. Sonicated cell lysates or ocular/vaginal swabs were used as inoculants for a plaque assay to determine the total amount of infectious virus. In a typical experiment, Vero cells were plated at a seating density of 5×10^4 per well in a 24 well plate overnight. Upon confluency, the cell monolayers were washed with PBS and infected samples were overlaid for a period of 2 h at multiple dilutions. The cells were then washed twice with PBS prior to the addition of DMEM mixed with 0.5% methylcellulose. The plates were incubated for 72 h at 37° C. and 5% CO2 before they were fixed with methanol and stained with crystal violet to determine the extent of plaque formation.
# HCEs were infected with 0.1 MOI HSV-1 K26RFP and treated with tunicamycin (1 μM), thapsigargin (1 μM), Brefeldin-A (1 μM), salubrinal (75 μM) or PBA (10 mM). At 24 hpi, cells were imaged for the presence of fluorescent HSV-1 and cells were lysed and used as inoculum on Vero cells to assess viral titer via plaque assay (FIGS. 3A and 3B). […] HCEs infected and treated with PBA with various concentrations were collected 24 hpi and the lysates from these cells were used as inoculum on Vero cells to determine a concentration dependent viral inhibition via a plaque assay (FIG. 3E).
# HSV = experiment: Viral protein synthesis in HSV infected cells (immunoblotting); settings: in vitro
# Experimental: Cells were scraped and incubated with 1004 of Radioimmunoprecipitation assay (RIPA) buffer with protease phosphatase inhibitor cocktail (Halt™, 78440) for a period of 30 minutes on ice. Whole cell protein extracts (supernatant) were collected by centrifuging the mixture at 13,500 rpm on a bench top refrigerated (4° C.) centrifuge for 15 minutes. Protein samples were then denatured in NuPAGE LDS Sample Buffer (Invitrogen, NP00007) and 6-mercaptoethanol by heating them to 80° C. for 10 min. The denatured protein samples were allowed to cool and equal amounts of protein were added to 4-12% SDS-PAGE loading gels and run at a constant speed of 70V for 3 h. The protein from the gel was then transferred to a nitrocellulose membrane using an iBlot 2 dry transfer machine (Thermofisher Scientific, USA). Nitrocellulose membrane was blocked in 5% nonfat milk/BSA in tris buffer saline (TBS) and 0.1% tween 20 (TBST) for 1 h at room temperature. After the blocking step, membranes were incubated with primary antibody at dilutions of 1:1000 overnight at 4° C. The following day the blots were washed multiple times with TBST before the addition of horse radish peroxidase conjugated secondary IgG antibody at dilutions of 1:10,000 at room temperature. […] The density of the bands was quantified using ImageQuant TL image analysis software (version: 7). GAPDH was measured as a loading control.
# [2] = in vivo; cited from earlier work
# HSV-1 infected HCEs = experiment: Survival and syncytia of HSV-1 infected HCEs in cell culture; assay type: cell-based, human
molecule,measurement,setting,value
"Nc1nc2c(ncn2COCCO)c(=O)[nH]1 [ACV, acyclovir]",renal toxicity,[1],renal toxicity including acute kidney injury
same,appearance and behavior of infected mice,HSV-1 McKrae,look healthier with no behavioral changes
"C[C@H]1CCC/C=C/[C@@H]2C[C@H](O)C[C@H]2[C@H](O)/C=C/C(=O)O1 [BA, Brefeldin-A]",viral replication / viral infection in HSV-1 infected HCEs,HSV-1,inhibited viral replication
"O=C([O-])CCCc1ccccc1.[Na+] [NaPBA, sodium 4-phenylbutanoate]",viral protein synthesis,HSV,suppressed viral protein synthesis
"O=c1[nH]c(=O)n([C@H]2C[C@H](O)[C@@H](CO)O2)cc1C(F)(F)F [TFT, trifluridine]",corneal toxicity,[2],"corneal toxicity including inflammation, dryness and pain"
"C/C=C(/C)C(=O)O[C@H]1C(C)=C2[C@H]([C@@H]1OC(=O)CCCCCCC)[C@@](C)(OC(C)=O)C[C@H](OC(=O)CCC)[C@@]1(O)[C@H]2OC(=O)[C@@]1(C)O [TG, Thapsigargin]",viral replication / viral infection in HSV-1 infected HCEs,HSV-1,inhibited viral replication
O=C(/C=C/c1ccccc1)NC(NC(=S)Nc1cccc2cccnc12)C(Cl)(Cl)Cl (stereo not drawn) [salubrinal],survival of the HSV-1 infected cell,HSV-1 infected HCEs,form large syncytia and survive longer in cell culture; also recorded: increased survival of the cell
same,viral replication / viral infection in HSV-1 infected HCEs,HSV-1,increased viral replication
Tunicamycin [TM],viral replication / viral infection in HSV-1 infected HCEs,HSV-1,inhibited viral replication
